Measured values as given in publication PMC6576746, “Rational discovery of dual-indication multi-target PDE/Kinase inhibitor for precision anti-cancer therapy using structural systems pharmacology” (PLoS Computational Biology, 2019).

Assays:
Assay in all cases: cells
Set-up in all cases: species or system panel of human cancer cell lines; Eurofins OncoPanel proliferation; nuclei count by high-content fluorescence imaging, 10-point dose response
TCCSUP = settings: Homo sapiens, TCC-SUP, 72 h, cell count, 3 days
Procedure, shortened: (§1)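 Cells in RPMI 1640/10% FBS or special medium received compound the day after seeding, with a time-zero plate; 3-day incubation at 37°C, 5% CO2. Nuclei imaged by fluorescence microscopy; 10 half-log doses from 100 μM, 0.1% DMSO. EC50, IC50, GI50 and activity area (0–10) from curve fits.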

AN3 CA = settings: Homo sapiens, AN3-CA, 72 h, cell count, 3 days
Procedure, shortened: as §1

DMS114 = settings: Homo sapiens, DMS-114, 72 h, cell count, 3 days
Procedure, shortened: as §1

EM-2 = settings: Homo sapiens, EM-2, 72 h, cell count, 3 days
Procedure, shortened: as §1

NCIH441 = settings: Homo sapiens, NCI-H441, 72 h, cell count, 3 days
Procedure, shortened: as §1

K562 = settings: Homo sapiens, K562, 72 h, cell count, 3 days
Procedure, shortened: as §1

T24 = settings: Homo sapiens, T-24, 72 h, cell count, 3 days
Procedure, shortened: as §1

OVCAR3 = settings: Homo sapiens, OVCAR-3, 72 h, cell count, 3 days
Procedure, shortened: as §1

RL95-2 = settings: Homo sapiens, RL95-2, 72 h, cell count, 3 days
Procedure, shortened: as §1

BPH1 = settings: Homo sapiens, BPH-1, 72 h, cell count, 3 days
Procedure, shortened: as §1

Caki-2 = settings: Homo sapiens, CAKI-2, 72 h, cell count, 3 days
Procedure, shortened: as §1

SK-UT-1 = settings: Homo sapiens, SK-UT-1, 72 h, cell count, 3 days
Procedure, shortened: as §1

H9 = settings: Homo sapiens, H9, 72 h, cell count, 3 days
Procedure, shortened: as §1

SK-PN-DW = settings: 72 h, cell count, 3 days
Procedure, shortened: as §1

[1] = 50% of maximum possible response

Structure (SMILES): C[C@@H]1CC(=O)NN=C1c1ccc(NN=C(C#N)C#N)cc1 [levosimendan]
- IC50 (TCCSUP; [1]): > 100 µM
- GI50 (TCCSUP; corrected for time zero): 94.3 µM
- EC50 (TCCSUP; curve inflection point): > 100 µM
- IC50 (AN3 CA; [1]): 21.2 µM
- GI50 (AN3 CA; corrected for time zero): 11.6 µM
- EC50 (AN3 CA; curve inflection point): 21.2 µM
- IC50 (DMS114; [1]): 50.7 µM
- GI50 (DMS114; corrected for time zero): 18.9 µM
- EC50 (DMS114; curve inflection point): 50.7 µM
- IC50 (EM-2; [1]): 25.4 µM
- GI50 (EM-2; corrected for time zero): 18.6 µM
- EC50 (EM-2; curve inflection point): 22.3 µM
- IC50 (NCIH441; [1]): > 100 µM
- GI50 (NCIH441; corrected for time zero): 31.9 µM
- EC50 (NCIH441; curve inflection point): > 100 µM
- IC50 (K562; [1]): 44.4 µM
- GI50 (K562; corrected for time zero): 38.5 µM
- EC50 (K562; curve inflection point): 44.4 µM
- IC50 (T24; [1]): 6.95 µM
- GI50 (T24; corrected for time zero): 6.6 µM
- EC50 (T24; curve inflection point): 6.27 µM
- IC50 (OVCAR3; [1]): 42.6 µM
- GI50 (OVCAR3; corrected for time zero): 24.1 µM
- EC50 (OVCAR3; curve inflection point): 42.6 µM
- IC50 (RL95-2; [1]): 21.1 µM
- GI50 (RL95-2; corrected for time zero): 10.4 µM
- EC50 (RL95-2; curve inflection point): 19 µM
- IC50 (BPH1; [1]): 8.33 µM
- GI50 (BPH1; corrected for time zero): 7.33 µM
- EC50 (BPH1; curve inflection point): 7.05 µM
- IC50 (Caki-2; [1]): > 100 µM
- GI50 (Caki-2; corrected for time zero): > 100 µM
- EC50 (Caki-2; curve inflection point): > 100 µM
- IC50 (SK-UT-1; [1]): 11.8 µM
- GI50 (SK-UT-1; corrected for time zero): 9.1 µM
- EC50 (SK-UT-1; curve inflection point): 11.8 µM
- IC50 (H9; [1]): 5.4 µM
- GI50 (H9; corrected for time zero): 4.31 µM
- EC50 (H9; curve inflection point): 4.92 µM
- IC50 (SK-PN-DW; [1]): 57.4 µM
- GI50 (SK-PN-DW; corrected for time zero): 43.3 µM
- EC50 (SK-PN-DW; curve inflection point): 57.4 µM
